Measurements taken from article PMC4685510, “A Cell Biologist’s Field Guide to Aurora Kinase Inhibitors” (Frontiers in Oncology, 2015).

What was measured:
Test in all cases: biochemical
Assay type in all cases: biochemical
[1] = molecular target: 363 human kinases (including Aurora A/B/C) (Homo sapiens, UniProt O15075); conditions: DCAMKL1, [ATP] 50 µM; for remaining activity at 0.1 µM: 100 nM; for remaining activity at 0.1 µM / remaining activity at 0.5 µM: read-out: % Enzyme Activity (relative to DMSO controls)
Text: (§1) However, the Aurora A/B selectivity ratios derived from our in vitro and in vivo data can be compared to prioritize inhibitors.

[2] = molecular target: T1, 363 human kinases (including Aurora A/B/C) (Homo sapiens, UniProt Q9Y2U5); conditions: MEKK2; for remaining activity at 0.1 µM: 100 nM; for remaining activity at 0.1 µM / remaining activity at 0.5 µM: read-out: % Enzyme Activity (relative to DMSO controls)
T1 sequence (Q9Y2U5 1-619): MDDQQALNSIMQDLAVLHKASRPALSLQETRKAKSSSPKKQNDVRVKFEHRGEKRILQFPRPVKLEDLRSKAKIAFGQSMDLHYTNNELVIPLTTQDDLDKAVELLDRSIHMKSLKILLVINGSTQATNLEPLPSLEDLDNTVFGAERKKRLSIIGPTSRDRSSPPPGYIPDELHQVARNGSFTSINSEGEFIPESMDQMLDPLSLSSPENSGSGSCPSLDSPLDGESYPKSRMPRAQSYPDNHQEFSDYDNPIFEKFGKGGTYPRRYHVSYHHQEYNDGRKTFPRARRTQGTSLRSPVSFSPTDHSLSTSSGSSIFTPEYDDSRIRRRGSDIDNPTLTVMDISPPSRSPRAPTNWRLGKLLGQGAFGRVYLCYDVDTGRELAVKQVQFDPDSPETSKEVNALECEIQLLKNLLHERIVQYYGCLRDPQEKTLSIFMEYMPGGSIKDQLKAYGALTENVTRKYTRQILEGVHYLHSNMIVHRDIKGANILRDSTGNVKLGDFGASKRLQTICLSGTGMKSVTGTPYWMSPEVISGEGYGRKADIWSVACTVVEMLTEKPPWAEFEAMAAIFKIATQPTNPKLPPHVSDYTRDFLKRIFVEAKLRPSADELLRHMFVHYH
Text: as §1

[3] = molecular target: 363 human kinases (including Aurora A/B/C) (Homo sapiens, UniProt P22455); conditions: FGFR4, [ATP] 100 µM; for remaining activity at 0.1 µM: 100 nM; for remaining activity at 0.1 µM / remaining activity at 0.5 µM: read-out: % Enzyme Activity (relative to DMSO controls)
Text: as §1

[4] = molecular target: T2, 363 human kinases (including Aurora A/B/C) (Homo sapiens, UniProt Q13470); conditions: TNK1; for remaining activity at 0.1 µM: 100 nM; for remaining activity at 0.1 µM / remaining activity at 0.5 µM: read-out: % Enzyme Activity (relative to DMSO controls)
T2 sequence (Q13470 1-666): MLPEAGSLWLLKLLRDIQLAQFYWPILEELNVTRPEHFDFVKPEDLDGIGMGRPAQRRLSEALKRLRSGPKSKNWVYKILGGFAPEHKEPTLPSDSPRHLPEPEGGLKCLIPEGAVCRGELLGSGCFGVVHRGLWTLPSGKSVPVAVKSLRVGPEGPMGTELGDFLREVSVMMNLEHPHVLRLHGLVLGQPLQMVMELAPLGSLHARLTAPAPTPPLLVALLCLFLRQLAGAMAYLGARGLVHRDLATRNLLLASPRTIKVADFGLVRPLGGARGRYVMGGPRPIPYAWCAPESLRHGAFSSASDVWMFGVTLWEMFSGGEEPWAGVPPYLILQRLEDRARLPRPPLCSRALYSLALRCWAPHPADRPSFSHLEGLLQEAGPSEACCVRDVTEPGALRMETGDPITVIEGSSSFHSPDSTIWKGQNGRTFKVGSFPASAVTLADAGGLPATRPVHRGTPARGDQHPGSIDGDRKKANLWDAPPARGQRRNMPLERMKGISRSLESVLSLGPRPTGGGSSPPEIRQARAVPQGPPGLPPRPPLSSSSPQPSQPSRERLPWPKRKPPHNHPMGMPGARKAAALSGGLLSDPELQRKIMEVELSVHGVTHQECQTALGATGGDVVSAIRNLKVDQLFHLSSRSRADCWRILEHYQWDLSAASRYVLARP
Text: as §1

[5] = molecular target: 363 human kinases (including Aurora A/B/C) (Homo sapiens, UniProt P57059); conditions: SIK1; for remaining activity at 0.1 µM: 100 nM; for remaining activity at 0.1 µM / remaining activity at 0.5 µM: read-out: % Enzyme Activity (relative to DMSO controls)
Text: as §1

[6] = molecular target: 363 human kinases (including Aurora A/B/C) (Homo sapiens, UniProt P21802); conditions: FGFR2, [ATP] 5 µM; for remaining activity at 0.1 µM: 100 nM; for remaining activity at 0.1 µM / remaining activity at 0.5 µM: read-out: % Enzyme Activity (relative to DMSO controls)
Text: as §1

[7] = molecular target: 363 human kinases (including Aurora A/B/C) (Homo sapiens, UniProt Q52WX2); conditions: SBK1; for remaining activity at 0.1 µM: 100 nM; for remaining activity at 0.1 µM / remaining activity at 0.5 µM: read-out: % Enzyme Activity (relative to DMSO controls)
Text: as §1

[8] = molecular target: T3, 363 human kinases (including Aurora A/B/C) (Homo sapiens, UniProt Q8TF76); conditions: Haspin; for remaining activity at 0.1 µM: 100 nM; for remaining activity at 0.1 µM / remaining activity at 0.5 µM: read-out: % Enzyme Activity (relative to DMSO controls)
T3 sequence (Q8TF76 1-798): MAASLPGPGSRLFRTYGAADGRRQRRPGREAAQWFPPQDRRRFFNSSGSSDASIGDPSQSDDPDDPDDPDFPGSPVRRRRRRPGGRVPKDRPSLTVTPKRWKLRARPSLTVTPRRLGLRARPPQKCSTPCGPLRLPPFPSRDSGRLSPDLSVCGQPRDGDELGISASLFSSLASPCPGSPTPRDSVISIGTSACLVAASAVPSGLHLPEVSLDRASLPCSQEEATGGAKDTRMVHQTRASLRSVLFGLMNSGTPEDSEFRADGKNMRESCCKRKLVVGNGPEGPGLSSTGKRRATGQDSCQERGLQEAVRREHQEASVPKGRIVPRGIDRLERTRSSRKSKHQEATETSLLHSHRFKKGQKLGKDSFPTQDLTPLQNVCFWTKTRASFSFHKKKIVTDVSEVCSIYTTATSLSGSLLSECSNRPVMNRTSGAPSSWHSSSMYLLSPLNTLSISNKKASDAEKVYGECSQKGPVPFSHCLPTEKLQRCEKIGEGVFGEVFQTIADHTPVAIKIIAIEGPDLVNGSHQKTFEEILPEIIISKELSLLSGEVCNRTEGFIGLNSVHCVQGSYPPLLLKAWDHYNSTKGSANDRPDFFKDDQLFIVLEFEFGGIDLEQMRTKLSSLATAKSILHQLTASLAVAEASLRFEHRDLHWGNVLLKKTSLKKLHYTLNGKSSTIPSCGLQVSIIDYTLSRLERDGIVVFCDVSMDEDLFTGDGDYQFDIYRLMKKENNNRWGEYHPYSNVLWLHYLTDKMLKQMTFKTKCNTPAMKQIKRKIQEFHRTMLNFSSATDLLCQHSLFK
Text: as §1

[9] = molecular target: 363 human kinases (including Aurora A/B/C) (Homo sapiens, UniProt P27361); conditions: ERK1, [ATP] 100 µM; for remaining activity at 0.1 µM: 100 nM; for remaining activity at 0.1 µM / remaining activity at 0.5 µM: read-out: % Enzyme Activity (relative to DMSO controls)
Text: as §1

[10] = molecular target: 363 human kinases (including Aurora A/B/C) (Homo sapiens, UniProt Q9Y3S1); conditions: WNK2; for remaining activity at 0.1 µM: 100 nM; for remaining activity at 0.1 µM / remaining activity at 0.5 µM: read-out: % Enzyme Activity (relative to DMSO controls)
Text: as §1

[11] = molecular target: 363 human kinases (including Aurora A/B/C) (Homo sapiens, UniProt P49840); conditions: GSK3a; for remaining activity at 0.1 µM: 100 nM; for remaining activity at 0.1 µM / remaining activity at 0.5 µM: read-out: % Enzyme Activity (relative to DMSO controls)
Sequence of 363 human kinases (including Aurora A/B/C) (Homo sapiens, UniProt P49840) (P49840 whole entry): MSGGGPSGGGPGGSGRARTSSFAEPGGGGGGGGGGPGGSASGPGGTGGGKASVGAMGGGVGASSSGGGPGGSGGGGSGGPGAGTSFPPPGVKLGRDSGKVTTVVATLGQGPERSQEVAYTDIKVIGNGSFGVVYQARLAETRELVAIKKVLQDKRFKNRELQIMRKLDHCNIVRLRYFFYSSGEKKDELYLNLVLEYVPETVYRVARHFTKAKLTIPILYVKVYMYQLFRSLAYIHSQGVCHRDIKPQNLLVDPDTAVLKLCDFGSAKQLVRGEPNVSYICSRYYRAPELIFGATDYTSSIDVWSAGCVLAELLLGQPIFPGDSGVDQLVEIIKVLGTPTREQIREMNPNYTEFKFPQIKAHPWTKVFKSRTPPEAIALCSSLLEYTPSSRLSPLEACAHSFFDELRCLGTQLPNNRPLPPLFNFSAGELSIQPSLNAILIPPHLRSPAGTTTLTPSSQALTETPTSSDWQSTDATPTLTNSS
Text: as §1

Sequence of 363 human kinases (including Aurora A/B/C) (Homo sapiens, UniProt P21802) (P21802 22-821): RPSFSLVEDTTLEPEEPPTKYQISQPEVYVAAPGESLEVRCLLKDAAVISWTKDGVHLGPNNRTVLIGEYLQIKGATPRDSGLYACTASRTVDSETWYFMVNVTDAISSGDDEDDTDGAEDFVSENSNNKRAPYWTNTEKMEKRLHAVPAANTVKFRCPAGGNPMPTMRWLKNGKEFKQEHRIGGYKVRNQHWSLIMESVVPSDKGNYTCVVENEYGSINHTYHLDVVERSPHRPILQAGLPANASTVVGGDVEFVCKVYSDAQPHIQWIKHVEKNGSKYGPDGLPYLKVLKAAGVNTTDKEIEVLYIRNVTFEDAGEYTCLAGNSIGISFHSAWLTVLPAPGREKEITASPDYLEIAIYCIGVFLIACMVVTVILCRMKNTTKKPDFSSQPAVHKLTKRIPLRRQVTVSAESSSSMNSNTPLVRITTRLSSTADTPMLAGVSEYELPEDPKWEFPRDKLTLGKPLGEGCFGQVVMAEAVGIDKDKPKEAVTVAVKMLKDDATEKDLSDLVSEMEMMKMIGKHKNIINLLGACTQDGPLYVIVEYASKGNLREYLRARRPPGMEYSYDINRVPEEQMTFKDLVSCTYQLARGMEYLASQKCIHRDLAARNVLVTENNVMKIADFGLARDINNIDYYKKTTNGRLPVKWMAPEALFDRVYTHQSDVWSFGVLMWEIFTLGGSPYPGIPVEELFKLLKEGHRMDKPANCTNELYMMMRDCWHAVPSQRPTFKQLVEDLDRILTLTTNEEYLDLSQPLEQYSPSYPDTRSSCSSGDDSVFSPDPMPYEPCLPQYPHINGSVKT
Sequence of 363 human kinases (including Aurora A/B/C) (Homo sapiens, UniProt Q52WX2) (Q52WX2 whole entry): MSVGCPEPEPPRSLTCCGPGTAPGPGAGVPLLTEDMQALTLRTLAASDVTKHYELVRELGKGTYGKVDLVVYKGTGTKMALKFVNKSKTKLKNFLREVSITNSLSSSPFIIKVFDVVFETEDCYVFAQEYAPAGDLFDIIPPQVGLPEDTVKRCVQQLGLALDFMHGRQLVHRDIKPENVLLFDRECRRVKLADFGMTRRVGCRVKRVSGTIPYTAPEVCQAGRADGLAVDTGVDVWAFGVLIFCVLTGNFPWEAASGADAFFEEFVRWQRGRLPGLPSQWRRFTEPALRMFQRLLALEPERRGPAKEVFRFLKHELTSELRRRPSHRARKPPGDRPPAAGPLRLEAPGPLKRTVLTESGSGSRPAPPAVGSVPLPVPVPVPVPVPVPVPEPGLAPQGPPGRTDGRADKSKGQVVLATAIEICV
Sequence of 363 human kinases (including Aurora A/B/C) (Homo sapiens, UniProt P27361) (P27361 whole entry): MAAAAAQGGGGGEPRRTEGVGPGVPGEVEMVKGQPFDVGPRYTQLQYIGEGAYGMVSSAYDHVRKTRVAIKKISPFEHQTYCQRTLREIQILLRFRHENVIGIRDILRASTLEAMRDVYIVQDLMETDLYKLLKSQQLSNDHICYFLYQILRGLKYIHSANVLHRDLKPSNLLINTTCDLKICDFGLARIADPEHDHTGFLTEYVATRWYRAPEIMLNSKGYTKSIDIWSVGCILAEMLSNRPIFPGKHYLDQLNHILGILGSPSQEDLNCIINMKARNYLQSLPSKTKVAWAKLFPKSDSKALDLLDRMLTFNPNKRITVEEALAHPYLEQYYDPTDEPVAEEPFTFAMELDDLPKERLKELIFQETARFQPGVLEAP
Sequence of 363 human kinases (including Aurora A/B/C) (Homo sapiens, UniProt Q9Y3S1) (Q9Y3S1 whole entry): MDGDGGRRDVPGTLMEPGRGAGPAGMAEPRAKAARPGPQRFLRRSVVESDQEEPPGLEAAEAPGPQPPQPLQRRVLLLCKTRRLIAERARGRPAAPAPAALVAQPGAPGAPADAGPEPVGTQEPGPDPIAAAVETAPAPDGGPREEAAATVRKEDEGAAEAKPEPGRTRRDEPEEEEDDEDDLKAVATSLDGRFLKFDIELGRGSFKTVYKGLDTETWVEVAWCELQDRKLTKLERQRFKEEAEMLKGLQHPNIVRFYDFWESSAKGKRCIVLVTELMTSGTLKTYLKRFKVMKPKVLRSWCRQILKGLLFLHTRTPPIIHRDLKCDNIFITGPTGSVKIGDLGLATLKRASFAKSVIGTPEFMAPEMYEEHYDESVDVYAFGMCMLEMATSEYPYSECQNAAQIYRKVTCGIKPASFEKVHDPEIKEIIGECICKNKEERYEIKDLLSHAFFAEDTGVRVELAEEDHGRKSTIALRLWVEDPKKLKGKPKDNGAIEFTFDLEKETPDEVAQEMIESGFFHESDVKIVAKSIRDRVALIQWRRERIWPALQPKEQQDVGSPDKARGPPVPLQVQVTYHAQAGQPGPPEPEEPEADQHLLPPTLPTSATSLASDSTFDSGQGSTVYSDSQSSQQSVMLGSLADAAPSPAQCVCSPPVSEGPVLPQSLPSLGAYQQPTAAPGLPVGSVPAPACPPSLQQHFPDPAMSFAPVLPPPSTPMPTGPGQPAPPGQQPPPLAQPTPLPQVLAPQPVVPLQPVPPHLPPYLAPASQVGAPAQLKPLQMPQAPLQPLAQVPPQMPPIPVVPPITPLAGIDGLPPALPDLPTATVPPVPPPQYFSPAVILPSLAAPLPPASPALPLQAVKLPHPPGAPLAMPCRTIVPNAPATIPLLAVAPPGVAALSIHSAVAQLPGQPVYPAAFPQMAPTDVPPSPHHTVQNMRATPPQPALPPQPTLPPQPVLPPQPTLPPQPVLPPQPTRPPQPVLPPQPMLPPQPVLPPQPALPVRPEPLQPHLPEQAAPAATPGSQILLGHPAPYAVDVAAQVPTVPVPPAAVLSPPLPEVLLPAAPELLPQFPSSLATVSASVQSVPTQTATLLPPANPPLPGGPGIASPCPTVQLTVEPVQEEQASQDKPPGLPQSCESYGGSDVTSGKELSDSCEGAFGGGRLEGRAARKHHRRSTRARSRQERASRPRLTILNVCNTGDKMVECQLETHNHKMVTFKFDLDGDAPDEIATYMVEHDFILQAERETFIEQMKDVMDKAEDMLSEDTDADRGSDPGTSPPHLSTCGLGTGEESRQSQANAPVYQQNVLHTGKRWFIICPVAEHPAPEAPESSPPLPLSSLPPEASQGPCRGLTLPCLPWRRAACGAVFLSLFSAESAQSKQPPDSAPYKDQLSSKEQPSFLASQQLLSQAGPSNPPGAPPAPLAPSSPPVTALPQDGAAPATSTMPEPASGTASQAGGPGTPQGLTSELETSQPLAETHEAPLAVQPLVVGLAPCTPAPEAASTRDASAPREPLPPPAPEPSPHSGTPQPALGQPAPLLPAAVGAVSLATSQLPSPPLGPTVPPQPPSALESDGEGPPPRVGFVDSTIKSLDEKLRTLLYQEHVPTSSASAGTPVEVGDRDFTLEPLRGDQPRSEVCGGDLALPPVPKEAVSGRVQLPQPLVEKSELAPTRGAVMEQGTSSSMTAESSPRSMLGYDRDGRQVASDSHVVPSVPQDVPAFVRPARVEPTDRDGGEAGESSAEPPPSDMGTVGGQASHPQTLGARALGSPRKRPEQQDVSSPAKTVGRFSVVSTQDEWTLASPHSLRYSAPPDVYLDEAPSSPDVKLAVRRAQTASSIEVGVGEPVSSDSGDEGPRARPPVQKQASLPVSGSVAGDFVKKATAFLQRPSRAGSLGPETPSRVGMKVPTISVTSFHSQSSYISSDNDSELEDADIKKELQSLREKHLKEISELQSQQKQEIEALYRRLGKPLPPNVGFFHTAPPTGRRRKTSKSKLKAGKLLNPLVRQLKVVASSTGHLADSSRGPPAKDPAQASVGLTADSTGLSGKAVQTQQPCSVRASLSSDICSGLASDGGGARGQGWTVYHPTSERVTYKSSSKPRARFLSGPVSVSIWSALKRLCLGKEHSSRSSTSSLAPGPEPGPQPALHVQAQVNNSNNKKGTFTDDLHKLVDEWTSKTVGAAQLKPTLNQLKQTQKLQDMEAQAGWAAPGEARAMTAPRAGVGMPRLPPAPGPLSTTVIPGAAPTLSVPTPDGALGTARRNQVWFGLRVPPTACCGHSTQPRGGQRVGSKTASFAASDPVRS

With `CCn1cc(-c2ccnc3[nH]c(-c4cccc(CN(C)C)c4)cc23)c(-c2ccc(NC(=O)N(C)C)cc2)n1` [GSK1070916] the remaining activity at 0.1 µM [1] was 114%, the remaining activity at 0.1 µM [2] was 81.7% and the remaining activity at 0.1 µM [3] was 125%. It also gave a remaining activity at 0.1 µM [4] of 90.7%, a remaining activity at 0.1 µM [5] of 40.7% and a remaining activity at 0.1 µM [6] of 43.3%. It also gave a remaining activity at 0.1 µM [7] of 101%, a remaining activity at 0.1 µM [8] of 86.9% and a remaining activity at 0.1 µM [9] of 109%. For the same compound, the remaining activity at 0.1 µM [10] was 92.3% and the remaining activity at 0.1 µM [11] was 99%.

For `O=C(O)[C@]1(Cc2cccc(Nc3nccs3)n2)CC[C@@H](Oc2cccc(Cl)c2F)CC1` [MK-5108], the remaining activity at 0.1 µM [1] was 108%, the remaining activity at 0.5 µM ([1]; 500 nM) was 131% and the remaining activity at 0.1 µM [2] was 102%. For the same compound, the remaining activity at 0.5 µM ([2]; 500 nM) was 83.9%, the remaining activity at 0.1 µM [3] was 91.7% and the remaining activity at 0.5 µM ([3]; 500 nM) was 126%. The remaining activity at 0.1 µM [4] was 22.9%, the remaining activity at 0.5 µM ([4]; 500 nM) was 6.3% and the remaining activity at 0.1 µM [5] was 103%. The remaining activity at 0.5 µM ([5]; 500 nM) was 54.4%, the remaining activity at 0.1 µM [6] was 39.7% and the remaining activity at 0.5 µM ([6]; 500 nM) was 11.2%. The remaining activity at 0.1 µM [7] was 102%, the remaining activity at 0.5 µM ([7]; 500 nM) was 96.3% and the remaining activity at 0.1 µM [8] was 101%. The remaining activity at 0.5 µM ([8]; 500 nM) was 74%, the remaining activity at 0.1 µM [9] was 88.9% and the remaining activity at 0.5 µM ([9]; 500 nM) was 107%. It also gave a remaining activity at 0.1 µM [10] of 83%, a remaining activity at 0.5 µM ([10]; 500 nM) of 33.8% and a remaining activity at 0.1 µM [11] of 32.5%. For the same compound, the remaining activity at 0.5 µM ([11]; 500 nM) was 24.7%.

For `O=C(c1cccc(Cl)c1F)N1CCN(Cc2cccc(Nc3nccs3)n2)CC1` [MK-8745], the “% Enzyme Activity (relative to DMSO controls)” value ([1]; 500 nM) was 138.94%, the remaining activity at 0.5 µM ([1]; 500 nM) was 142% and the “% Enzyme Activity (relative to DMSO controls)” value ([2]; 500 nM) was 96.27%. The remaining activity at 0.5 µM ([2]; 500 nM) was 97.5%, the “% Enzyme Activity (relative to DMSO controls)” value ([3]; 500 nM) was 106.52% and the remaining activity at 0.5 µM ([3]; 500 nM) was 118%. The “% Enzyme Activity (relative to DMSO controls)” value ([4]; 500 nM) was 75.54%, the remaining activity at 0.5 µM ([4]; 500 nM) was 77.7% and the “% Enzyme Activity (relative to DMSO controls)” value ([5]; 500 nM) was 93.78%. For the same compound, the remaining activity at 0.5 µM ([5]; 500 nM) was 95.7%, the “% Enzyme Activity (relative to DMSO controls)” value ([6]; 500 nM) was 90.67% and the remaining activity at 0.5 µM ([6]; 500 nM) was 92%. The “% Enzyme Activity (relative to DMSO controls)” value ([7]; 500 nM) was 95.86%, the remaining activity at 0.5 µM ([7]; 500 nM) was 96.4% and the “% Enzyme Activity (relative to DMSO controls)” value ([8]; 500 nM) was 100.89%. The remaining activity at 0.5 µM ([8]; 500 nM) was 102%, the “% Enzyme Activity (relative to DMSO controls)” value ([9]; 500 nM) was 100.59% and the remaining activity at 0.5 µM ([9]; 500 nM) was 102%. For the same compound, the “% Enzyme Activity (relative to DMSO controls)” value ([10]; 500 nM) was 101.71%, the remaining activity at 0.5 µM ([10]; 500 nM) was 102% and the “% Enzyme Activity (relative to DMSO controls)” value ([11]; 500 nM) was 21.35%. For the same compound, the remaining activity at 0.5 µM ([11]; 500 nM) was 23%.
